Results on two molecules are retold here after patent publication US4574126A, “Pyridine derivatives histamine H2 -antagonists” (Smith Kline & French Laboratories Limited, priority 1982, dated 1986).

Test [1] deals with T1, histamine H2 -receptors (Rattus norvegicus, UniProt P25102).
T1 construct: histamine-stimulated secretion of gastric acid from the lumen-perfused stomachs of rats anaesthetised with urethane; from tissue; host or cells: lumen-perfused stomach of urethane-anaesthetised female Sprague-Dawley rats (in vivo)
T1 sequence (P25102 whole entry, the tested form may be a part): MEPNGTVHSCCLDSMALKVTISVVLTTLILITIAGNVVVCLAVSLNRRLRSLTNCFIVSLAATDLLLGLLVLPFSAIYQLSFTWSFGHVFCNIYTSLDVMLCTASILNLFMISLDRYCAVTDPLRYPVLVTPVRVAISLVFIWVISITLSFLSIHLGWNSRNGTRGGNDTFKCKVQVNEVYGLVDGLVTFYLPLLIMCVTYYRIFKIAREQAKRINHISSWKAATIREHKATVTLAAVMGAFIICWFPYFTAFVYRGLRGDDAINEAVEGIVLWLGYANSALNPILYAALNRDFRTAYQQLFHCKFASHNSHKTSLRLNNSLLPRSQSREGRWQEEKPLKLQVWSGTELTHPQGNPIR
The experiment in a line: lumen-perfused rat test: inhibition of histamine-stimulated secretion of gastric acid. It is filed as in vivo. The settings on record: iv, lumen-perfused stomachs of rats anaesthetised with urethane, read-out: ED50 (for inhibiting sub-maximal acid secretion by 50%). An excerpt: These are actions of histamine which, according to Ash and Schild, Brit. J. Pharmac. Chemother. 27 247 (1966), are not mediated by histamine H1 -receptors.
Inhibition of histamine-stimulated secretion of gastric acid can be measured by using a lumen-perfused stomachs of rats anaesthetised with urethane using the following modification of the method of Ghosh and Schild, Brit. J. Pharmac. Chemother. 13 54 (1958):
Female Sprague-Dawley rats (160-200 g) are starved overnight and anaesthetised with urethane given intraperitoneally in one dose (200 mg). The trachea and jugular veins are both cannulated and a mid-line incision is made in the abdomen exposing the stomach which is cleared from connective tissue. […] The effluent is passed over a micro-flow pH electrode and recorded by a pH meter fed to an anti-log unit and flat-bed recorder. The basal output of acid secretion from the stomach is monitored by measurement of the pH of the perfusion effluent. A sub-maximal dose of histamine is continuously infused into the jugular vein and produces a stable plateau of acid secretion and the pH of the perfusion effluent is determined when this condition is obtained. […] The difference in acid secretion between basal output and the histamine stimulated plateau level and the reduction of acid secretion caused by the test compound are calculated from the difference in pH of the perfusion effluent. […]

In test [2] the target is T2, histamine H2 -receptors (Cavia porcellus, UniProt P47747).
T2 construct: a spontaneously beating isolated portion of the guinea pig right atrium; from tissue; host or cells: isolated guinea pig right atrium
T2 sequence (P47747 whole entry): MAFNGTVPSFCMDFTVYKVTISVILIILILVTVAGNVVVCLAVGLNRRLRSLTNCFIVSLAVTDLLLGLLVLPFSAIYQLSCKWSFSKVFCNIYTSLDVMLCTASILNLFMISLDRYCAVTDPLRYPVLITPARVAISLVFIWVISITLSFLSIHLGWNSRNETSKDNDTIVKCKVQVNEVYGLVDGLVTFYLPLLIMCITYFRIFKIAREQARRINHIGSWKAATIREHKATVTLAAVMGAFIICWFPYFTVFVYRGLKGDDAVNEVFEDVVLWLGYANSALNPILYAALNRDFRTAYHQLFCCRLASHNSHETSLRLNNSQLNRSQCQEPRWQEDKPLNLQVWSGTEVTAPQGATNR
As to the kind of experiment: guinea pig atrium test: inhibition of histamine-induced tachycardia in isolated right atrium. In kind it is biochemical. The settings on record: histamine-induced rate increase, 60 min contact, read-out: pA2 (converted). How it is done: In the guinea pig atrium test a spontaneously beating isolated portion of the guinea pig right atrium is secured under tension (300 mg) between an anchorage and a transducer in a 15 ml tissue bath and immersed in McEwens solution with constant aeration at a temperature of 37° C. The output from the transducer is amplified. Output is in turn fed to a flat bed recorder. Measured amounts of histamine are added to the tissue bath so that the histamine concentration increases step-wise until the rate of beating reaches a maximum. The tissue bath is washed out and filled with fresh McEwens solution containing compound under test. The solution is left in contact with the tissue for 60 min. and measured amounts of histamine are added again until a maximum rate is recorded. The assay is repeated with increasing concentrations of test compound and the dose of histamine giving 50% of maximum rate is noted. A dose ratio (DR) was calculated by comparing the concentrations of histamine required to produce 50% maximum response in the absence and in the presence of the antagonist. A plot of Log DR-1 against LOG D (the concentration of compound under test) is made and the point of intersection with the Log (DR-1) ordinate is taken as the measure of the activity (pA2 value).

For `CNC(=NCCSCc1cc(CN(C)C)ccn1)NC#N` [Example 1, N-cyano-N'-methyl-N"-[2-(4-dimethylaminomethyl-2-pyridylmethylthio)ethyl]-guanidine], the ED50 (in general, the dose that gives a 50% effect, or the effect in half of the subjects) on histamine H2 -receptors [1] is less than 0.1 µmol/kg. The Kb on histamine H2 -receptors [2] is less than 100 nM.

On to `CNC(=C[N+](=O)[O-])NCCSCc1cc(CN(C)C)ccn1` [Example 2, 1-nitro-2-methylamino-2-[2-(4-dimethylaminomethyl-2-pyridylmethylthio)ethylamino]-ethylene], for which the ED50 at histamine H2 -receptors [1] is less than 0.1 µmol/kg. The Kb at histamine H2 -receptors [2] was less than 100 nM.
